Experimental data reported in paper PMC5963757, “Expression, purification, and inhibition profile of dihydrofolate reductase from the filarial nematode Wuchereria bancrofti” (PLoS ONE, 2018).
Values joined by “and” are separate entries in the source; they are usually repeats but may differ in a detail not shown here. Identical values can stand only once. “Also recorded” adds a separate entry of the source. Like-named read-outs stand apart in the source and are kept apart here.

Legend:
WbDHFR [1] = biological target: T1, WbDHFR (Wuchereria bancrofti, UniProt J9F199); format: biochemical; settings: for inhibition of WbDHFR (in words): pH 6.0, 25°C
Description: (§1) Compounds (-)-epicatechin, (-)-epicatechin gallate, and vitexin were tested as inhibitors of WbDHFR and BmDHFR. The compounds (-)-epicatechin and (-)-epicatechin gallate were synthesized as described previously. […] Disappearance of DHF and NADPH was observed by measuring absorbance at 340 nm to measure the DHFR activity in a SpectraMax M3 microplate reader. […] All experiments were completed in triplicate.

BmDHFR [2] = biological target: T2, BmDHFR (Brugia malayi, UniProt A0A4E9FIQ4); parameters: method as in PMID 27544923; settings: read-out: IC50 BmDHFR found previously; cited from earlier work
BmDHFR [3] = biological target: T2, BmDHFR; test: biochemical; format: biochemical; settings: for inhibition of BmDHFR (in words): pH 6.0, 25°C
Description: as §1
A linear equation was fitted to the data at each substrate concentration. […] The KI values for BmDHFR in Table 1 were obtained using the Cheng-Prusoff Equation [18]. […] Inhibitor structures are shown in supporting information (S2 Fig).

BmDHFR [4] = biological target: T2, BmDHFR; parameters: method as in PMID 26669020; settings: computational prediction, cited from earlier work
WbDHFR [5] = biological target: T1, WbDHFR; test: Michaelis-Menten kinetics of WbDHFR, KM for DHF; format: biochemical; settings: pH 6.0, 25°C, 100 μM NADPH, MTEN buffer; ± S.D.
Description: To characterize DHFR enzymatic activity, we measured absorbance at 340 nm to follow the disappearance of DHF substrate and NADPH cofactor over time. The KM of WbDHFR for DHF was determined over a concentration range of 3.8 to 195 μM DHF, at 25°C, in MTEN buffer (50 mM 2-morpholinoethane sulphonic acid (MES), 25 mM Tris, 25 mM ethanolamine, 100 mM NaCl, and 1mM DTT) at pH 6.0. Initial velocity was plotted as a function of DHF concentration using KaleidaGraph and the Michaelis-Menten equation was fitted to the data. Catalytic activities of WbDHFR and BmDHFR were determined at various pH values (5.5–9.0) in MTEN buffer. The MTEN buffer used for all the reported assays has essentially a constant ionic strength at 0.15 over the pH range for which pH values were measured. Initial velocity was plotted as a function of pH using Excel.
Fig 2 Representative Michaelis-Menten curve. The conditions in the experimental wells (200 μL) were 100 μM NADPH, 12.4 nM WbDHFR in 1 X MTEN buffer at pH 6.0 with DHF concentrations ranging from 0 to 195 μM. The Michaelis-Menten equation was fitted to the data using KaleidaGraph. The Michaelis-Menten constant for DHF was determined by averaging values from fitting three separate data sets and found to be 3.7 ± 2.0 μM (S.D.).

BmDHFR [6] = biological target: T2, BmDHFR; settings: read-out: KM previously determined for BmDHFR; cited from earlier work
[7] = average of three trials, read-out: IC50 against BmDHFR Average
[8] = individual trial, read-out: IC50 against BmDHFR Trial 1
[9] = individual trial, read-out: IC50 against BmDHFR Trial 2
[10] = obtained using the Cheng-Prusoff Equation, upper limit for tight-binding inhibitors, read-out: KI BmDHFR
[11] = pH 6.0, 100 μM NADPH, 50 μM DHF, 40 nM BmDHFR, average of triplicates ± S.D., read-out: IC50 BmDHFR
[12] = read-out: predicted KI against BmDHFR
[13] = IC50 BmDHFR, pH 6.0, 100 μM NADPH, 50 μM DHF, 40 nM BmDHFR, average of triplicates ± S.D.
[14] = IC50 against BmDHFR Average, average of three trials
[15] = IC50 against BmDHFR Trial 1, individual trial
[16] = IC50 against BmDHFR Trial 2, individual trial
[17] = IC50 against BmDHFR Trial 3, individual trial

CN(Cc1cnc2nc(N)nc(N)c2n1)c1ccc(C(=O)N[C@@H](CCC(=O)O)C(=O)O)cc1 [Methotrexate, methotrexate]
inhibition of WbDHFR (in words) (WbDHFR [1]): inhibit

CCc1nc(N)nc(N)c1-c1ccc(Cl)cc1 [Pyrimethamine, pyrimethamine]
IC50 (BmDHFR [2]): 109 ± 34 µM
IC50 (BmDHFR [3]; [7]): 16 µM
IC50 (BmDHFR [3]; [8]): 16.4 µM
IC50 (BmDHFR [3]; [9]): 21.8 µM
IC50 (BmDHFR [3]; individual trial, read-out: IC50 against BmDHFR Trial 3): 8.7 µM
Ki (BmDHFR [3]; [10]): 3.6 ± 1.5 µM
IC50 (BmDHFR [3]; [11]): 15.6 µM and 16 µM
inhibition of WbDHFR (in words) (WbDHFR [1]): inhibit

(-)-epicatechin gallate
Ki (BmDHFR [4]; [12]): 48 µM
IC50 (BmDHFR [3]; [11]): > 1000 µM
inhibition of BmDHFR (in words) (BmDHFR [3]): did not observe inhibition; also recorded: neither compound showed any inhibitory activity
IC50 (WbDHFR [1]; pH 6.0, 100 μM NADPH, 50 μM DHF, 12.1 nM WbDHFR, average of triplicates ± S.D., read-out: IC50 WbDHFR): > 1 mM
inhibition of WbDHFR (in words) (WbDHFR [1]): did not observe inhibition; also recorded: neither compound showed any inhibitory activity

Nc1nc(=O)c2c([nH]1)NCC(CNc1ccc(C(=O)N[C@@H](CCC(=O)O)C(=O)O)cc1)=N2 [DHF, dihydrofolate]
Km (WbDHFR [5]): 3.7 ± 2 µM
Km (BmDHFR [6]): 14.7 ± 3.6 µM

Nc1nc(N)c2nc(CNc3ccc(C(=O)N[C@@H](CCC(=O)O)C(=O)O)cc3)cnc2n1 [Aminopterin, aminopterin]
Ki (BmDHFR [3]): < 0.0017 µM
IC50 (BmDHFR [3]; [13]): 0.0075 ± 0.0003 µM
IC50 (BmDHFR [3]; [14]): 0.00755 µM
IC50 (BmDHFR [3]; [15]): 0.0072 µM
IC50 (BmDHFR [3]; [16]): 0.0076 µM
IC50 (BmDHFR [3]; [17]): 0.00784 µM
inhibition of WbDHFR (in words) (WbDHFR [1]): inhibit

Oc1cc(O)c2c(c1)O[C@H](c1ccc(O)c(O)c1)[C@H](O)C2 [(-)-Epicatechin, (-)-epicatechin]
Ki (BmDHFR [4]; [12]): 76 µM
IC50 (BmDHFR [3]; [11]): > 2500 µM
inhibition of BmDHFR (in words) (BmDHFR [3]): did not observe inhibition; also recorded: neither compound showed any inhibitory activity
inhibition of WbDHFR (in words) (WbDHFR [1]): did not observe inhibition; also recorded: neither compound showed any inhibitory activity

Cc1nc2ccc(CN(C)c3ccc(C(=O)N[C@@H](CCC(=O)O)C(=O)O)s3)cc2c(=O)[nH]1 [Raltitrexed, raltitrexed]
IC50 (BmDHFR [3]; [7]): 7.3 µM
IC50 (BmDHFR [3]; [8]): 7.1 µM
IC50 (BmDHFR [3]; [9]): 6.83 µM
Ki (BmDHFR [3]; [10]): 1.6 ± 0.04 µM
IC50 (BmDHFR [3]; [11]): 7.3 ± 0.2 µM
inhibition of WbDHFR (in words) (WbDHFR [1]): inhibit

COc1cc(Cc2cnc(N)nc2N)cc(OC)c1OC [Trimethoprim, trimethoprim]
Ki (BmDHFR [4]; [12]): 11 µM
Ki (BmDHFR [3]): 15 ± 3 µM
IC50 (BmDHFR [3]; [13]): 65 ± 13 µM
IC50 (BmDHFR [3]; [14]): 64.7 µM
IC50 (BmDHFR [3]; [15]): 80.4 µM
IC50 (BmDHFR [3]; [16]): 61.1 µM
IC50 (BmDHFR [3]; [17]): 48.9 µM
inhibition of WbDHFR (in words) (WbDHFR [1]): inhibit

O=c1cc(-c2ccc(O)cc2)oc2c([C@@H]3O[C@H](CO)[C@@H](O)[C@H](O)[C@H]3O)c(O)cc(O)c12 [Vitexin, vitexin]
Ki (BmDHFR [4]; read-out: predicted inhibitor of BmDHFR): 0.465 µM
IC50 (BmDHFR [3]; [13]): > 240 µM
inhibition of BmDHFR (in words) (BmDHFR [3]): did not observe any inhibition
inhibition of WbDHFR (in words) (WbDHFR [1]): did not observe inhibition
